From ChEMBL document CHEMBL5512655, “Discovery of indolylacryloyl-derived oxacins as novel potential broad-spectrum antibacterial candidates” (Eur J Med Chem, 2024)
Values after ≈ are worked out from the molar mass of the structure shown.

Legend:
Assay type in all cases: functional
Staphylococcus aureus [1] = assay: Antibacterial activity against Staphylococcus aureus ATCC 25923 assessed as inhibition of bacterial growth measured after 24 hrs incubation
Staphylococcus aureus [2] = assay: Antibacterial activity against Staphylococcus aureus ATCC 29213 assessed as inhibition of bacterial growth measured after 24 hrs incubation
Staphylococcus aureus [3] = assay: Antibacterial activity against Staphylococcus aureus assessed as inhibition of bacterial growth measured after 24 hrs incubation
Escherichia coli [4] = assay: Antibacterial activity against Escherichia coli assessed as inhibition of bacterial growth measured after 24 hrs incubation
Enterococcus faecalis = assay: Antibacterial activity against Enterococcus faecalis assessed as inhibition of bacterial growth measured after 24 hrs incubation
Klebsiella pneumoniae = assay: Antibacterial activity against Klebsiella pneumonia assessed as inhibition of bacterial growth measured after 24 hrs incubation
Escherichia coli [5] = assay: Antibacterial activity against Escherichia coli ATCC 25922 assessed as inhibition of bacterial growth measured after 24 hrs incubation
Pseudomonas aeruginosa [6] = assay: Antibacterial activity against Pseudomonas aeruginosa assessed as inhibition of bacterial growth measured after 24 hrs incubation
Acinetobacter baumannii = assay: Antibacterial activity against Acinetobacter baumannii assessed as inhibition of bacterial growth measured after 24 hrs incubation
Staphylococcus aureus [7] = assay: Antibacterial activity against methicillin-resistant Staphylococcus aureus N315 assessed as inhibition of bacterial growth measured after 24 hrs incubation
Pseudomonas aeruginosa [8] = assay: Antibacterial activity against Pseudomonas aeruginosa ATCC 27853 assessed as inhibition of bacterial growth measured after 24 hrs incubation

| SMILES | MIC (Staphylococcus aureus [1]) [µg/mL] | MIC (Staphylococcus aureus [2]) [µg/mL] | MIC (Staphylococcus aureus [3]) [µg/mL] | MIC (Escherichia coli [4]) [µg/mL] | MIC (Enterococcus faecalis) [µg/mL] | MIC (Klebsiella pneumoniae) [µg/mL] | MIC (Escherichia coli [5]) [µg/mL] | MIC (Pseudomonas aeruginosa [6]) [µg/mL] | MIC (Acinetobacter baumannii) [µg/mL] | MIC (Staphylococcus aureus [7]) [µg/mL] | MIC (Pseudomonas aeruginosa [8]) [µg/mL] |
| --- | --- | --- | --- | --- | --- | --- | --- | --- | --- | --- | --- |
| CCn1cc(C(=O)O)c(=O)c2cc(F)c(N3CCN(C(=O)/C(C#N)=C/c4c[nH]c5ccccc45)CC3)cc21 | 1 (≈ 1.95 µM) | 0.5 (≈ 0.974 µM) | 4 (≈ 7.79 µM) | 0.5 (≈ 0.974 µM) | 0.25 (≈ 0.487 µM) | 0.25 (≈ 0.487 µM) | 0.25 (≈ 0.487 µM) | 1 (≈ 1.95 µM) | 0.25 (≈ 0.487 µM) | 0.5 (≈ 0.974 µM) | 0.5 (≈ 0.974 µM) |
| CCn1cc(C(=O)O)c(=O)c2cc(F)c(N3CCN(C(=O)/C(C#N)=C/c4c[nH]c5c(C)cccc45)CC3)cc21 | 4 (≈ 7.58 µM) | 4 (≈ 7.58 µM) | 4 (≈ 7.58 µM) | 1 (≈ 1.9 µM) | 4 (≈ 7.58 µM) | 0.5 (≈ 0.948 µM) | 2 (≈ 3.79 µM) | 4 (≈ 7.58 µM) | 2 (≈ 3.79 µM) | 4 (≈ 7.58 µM) | 1 (≈ 1.9 µM) |
| C#CCn1cc(/C=C(\C#N)C(=O)N2CCN(c3cc4c(cc3F)c(=O)c(C(=O)O)cn4CC)CC2)c2ccccc21 | 0.25 (≈ 0.453 µM) | 0.5 (≈ 0.906 µM) | 0.25 (≈ 0.453 µM) | 1 (≈ 1.81 µM) | 0.5 (≈ 0.906 µM) | 0.25 (≈ 0.453 µM) | 0.5 (≈ 0.906 µM) | 0.5 (≈ 0.906 µM) | 0.25 (≈ 0.453 µM) | 0.25 (≈ 0.453 µM) | 4 (≈ 7.25 µM) |
| CCCCCCn1cc(/C=C(\C#N)C(=O)N2CCN(c3cc4c(cc3F)c(=O)c(C(=O)O)cn4CC)CC2)c2ccccc21 | 64 (≈ 107 µM) | 4 (≈ 6.69 µM) | 0.5 (≈ 0.837 µM) | 0.5 (≈ 0.837 µM) | 32 (≈ 53.5 µM) | 1 (≈ 1.67 µM) | 2 (≈ 3.35 µM) | 16 (≈ 26.8 µM) | 16 (≈ 26.8 µM) | 0.5 (≈ 0.837 µM) | 0.5 (≈ 0.837 µM) |
| CCn1cc(C(=O)O)c(=O)c2cc(F)c(N3CCN(C(=O)/C(C#N)=C/c4cn(CC=C(C)C)c5ccccc45)CC3)cc21 | 4 (≈ 6.88 µM) | 4 (≈ 6.88 µM) | 1 (≈ 1.72 µM) | 64 (≈ 110 µM) | 1 (≈ 1.72 µM) | 0.25 (≈ 0.43 µM) | 0.5 (≈ 0.86 µM) | 8 (≈ 13.8 µM) | 2 (≈ 3.44 µM) | 8 (≈ 13.8 µM) | 1 (≈ 1.72 µM) |
| CCn1cc(C(=O)O)c(=O)c2cc(F)c(N3CCN(C(=O)/C(C#N)=C/c4cn(Cc5ccccc5Cl)c5ccccc45)CC3)cc21 | 32 (≈ 50.1 µM) | 64 (≈ 100 µM) | 256 (≈ 401 µM) | 1 (≈ 1.57 µM) | 16 (≈ 25.1 µM) | 32 (≈ 50.1 µM) | 0.25 (≈ 0.392 µM) | 16 (≈ 25.1 µM) | 8 (≈ 12.5 µM) | 32 (≈ 50.1 µM) | 1 (≈ 1.57 µM) |
| C=CCn1cc(C(=O)O)c(=O)c2cc(F)c(N3CCN(C(=O)/C(C#N)=C/c4cn(CC(=O)OCC)c5ccccc45)CC3)cc21 | 64 (≈ 105 µM) | 16 (≈ 26.2 µM) | 16 (≈ 26.2 µM) | 1 (≈ 1.63 µM) | 0.25 (≈ 0.409 µM) | 1 (≈ 1.63 µM) | 32 (≈ 52.3 µM) | 256 (≈ 419 µM) | 8 (≈ 13.1 µM) | 128 (≈ 209 µM) | 4 (≈ 6.54 µM) |
| CCCn1cc(/C=C(\C#N)C(=O)N2CCN(c3cc4c(cc3F)c(=O)c(C(=O)O)cn4CC)CC2)c2ccccc21 | 4 (≈ 7.2 µM) | 1 (≈ 1.8 µM) | 0.5 (≈ 0.9 µM) | 0.5 (≈ 0.9 µM) | 1 (≈ 1.8 µM) | 0.25 (≈ 0.45 µM) | 0.25 (≈ 0.45 µM) | 0.5 (≈ 0.9 µM) | 0.25 (≈ 0.45 µM) | 2 (≈ 3.6 µM) | 1 (≈ 1.8 µM) |
